# System: not listed separately
# Assay: Compound solubility in water
# Format: physicochemical
# Conditions: read-out: Solubility in H2O
row,solubility,SMILES
1,2.2 µM,"CC1CC(c2ccc3c(c2)oc(=O)n3C)CCN1C(=O)NCCCCc1ccccc1 (mixture of isomers) [Example 16, 2-methyl-4-(3-methyl-2-oxo-1,3-benzoxazol-6-yl)-N-(4-phenylbutyl)piperidine-1-carboxamide]"
2,10 µM,"C[C@H]1CC(c2ccc3c(c2)oc(=O)n3C)CCN1C(=O)NCCCCc1ccccc1 (mixture of isomers) [Example 20, (2S)-methyl-4-(3-methyl-2-oxo-1,3-benzoxazol-6-yl)-N-(4-phenylbutyl)piperidine-1-carboxamide]"

# Target: T1, Human acid ceramidase (hACR) (Homo sapiens, UniProt Q13510)
# T1 construct: expressed in transfected cells; lysates of cells overexpressing acid ceramidase
# T1 sequence (Q13510 22-395): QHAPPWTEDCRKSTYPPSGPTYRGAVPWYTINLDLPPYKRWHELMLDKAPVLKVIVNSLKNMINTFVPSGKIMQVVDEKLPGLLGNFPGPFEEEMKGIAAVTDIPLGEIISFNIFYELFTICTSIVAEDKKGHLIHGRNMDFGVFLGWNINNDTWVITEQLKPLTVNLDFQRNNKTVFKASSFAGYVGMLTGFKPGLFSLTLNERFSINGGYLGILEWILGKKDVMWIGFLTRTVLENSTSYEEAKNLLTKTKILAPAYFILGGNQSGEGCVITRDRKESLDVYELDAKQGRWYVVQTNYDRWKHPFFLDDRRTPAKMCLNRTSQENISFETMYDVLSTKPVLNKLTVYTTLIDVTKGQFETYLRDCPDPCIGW
# Assay: Acid ceramidase biochemical fluorescent assay (cell lysates overexpressing acid ceramidase, substrate Rbm14-12)
# Conditions: 10 μg lysate protein, 1 hr preincubation at RT, pH 4.5, Rbm14-12 6.3 μM
# Experimental: The ability of exemplary compounds to inhibit acid ceramidase was measured.
# Cell lysates overexpressing acid ceramidase were used as the enzyme source for compound potency determination in a biochemical fluorescent assay. Briefly, compounds were preincubated with 10 μg protein of cell lysates in a dose-response manner for 1 hr at RT in the assay buffer containing 25 mM NaAC and 100 mM NaCl, pH 4.5. The reaction was initiated by the addition of substrate Rbm14-12 at a final concentration of 6.3 μM. The reaction was run at RT for 1 hr before it was stopped by the addition of the stopping buffer containing 20% methanol (v/v), 1 mg/ml NaIO4, 0.1 M glycine, pH 10.6. The samples were incubated with the stopping buffer at RT for 1 hr to allow the fluorescent product to be formed. Finally the plate was read with SpectraMax i3 plate reader (Molecular Devices) at ex360 nm and em446 nm. Data were collected and used to determine the IC50 values of compounds by curve fitting to the four-parameter inhibition equation.
# The symbol “A” indicates inhibition of less than 0.2 μM; the symbol “B” indicates inhibition in the range of 0.2 μM up to 1 μM; and the symbol “C” indicates inhibition of greater than 1 μM.
row,SMILES,IC50
1,"CC1CC(c2ccc3c(c2)oc(=O)n3C)CCN1C(=O)NCCCCc1ccccc1 (mixture of isomers) [Example 16, 2-methyl-4-(3-methyl-2-oxo-1,3-benzoxazol-6-yl)-N-(4-phenylbutyl)piperidine-1-carboxamide]",< 200 nM
2,"C[C@@H]1CC(c2ccc3c(c2)oc(=O)n3C)CCN1C(=O)NCCCCc1ccccc1 (mixture of isomers) [Example 17, (2R)-2-Methyl-4-(3-methyl-2-oxo-1,3-benzoxazol-6-yl)-N-(4-phenylbutyl)piperidine-1-carboxamide]",< 200 nM
3,"C[C@@H]1CC(c2ccc3c(c2)oc(=O)n3C)CCN1C(=O)NCCc1ccccc1 (mixture of isomers) [Example 18, (2R)-2-Methyl-4-(3-methyl-2-oxo-1,3-benzoxazol-6-yl)-N-(2-phenylethyl)piperidine-1-carboxamide]",200 to 1000 nM
4,"CC(C)CNC(=O)N1CCC(c2ccc3c(c2)oc(=O)n3C)C[C@H]1C (mixture of isomers) [Example 19, N-iso-Butyl (2R)-methyl-4-(3-methyl-2-oxo-1,3-benzoxazol-6-yl)piperidine-1-carboxamide]",> 1000 nM
5,"Cn1c(=O)oc2cc(C3CCN(C(=O)NCCCCc4ccccc4)CC3)ccc21 [Example 2, 4-(3-Methyl-2-oxo-1,3-benzoxazol-6-yl)-N-(4-phenylbutyl)piperidine-1-carboxamide]",> 1000 nM
6,"Cn1c(=O)oc2cc(C3CCN(C(=O)NC4CCCCC4)CC3)ccc21 [Example 5, N-Cyclohexyl-4-(3-methyl-2-oxo-1,3-benzoxazol-6-yl)piperidine-1-carboxamide]",> 1000 nM
7,"O=C(NCCCCc1ccccc1)N1CCCC(c2ccc3[nH]c(=O)oc3c2)C1 (stereo not shown) [Example 11, 3-(2-Oxo-3H-1,3-benzoxazol-6-yl)-N-(4-phenylbutyl)piperidine-1-carboxamide]",> 1000 nM
8,"CCOCCNC(=O)N1CCCC(c2ccc3c(c2)oc(=O)n3C)C1 (stereo not shown) [Example 14, N-(2-Ethoxyethyl)-3-(3-methyl-2-oxo-1,3-benzoxazol-6-yl)piperidine-1-carboxamide]",> 1000 nM
9,"COCCCNC(=O)N1CCC(c2ccc3c(c2)oc(=O)n3C)CC1(C)C (stereo not shown) [Example 30, N-(3-methoxypropyl)-2,2-dimethyl-4-(3-methyl-2-oxo-1,3-benzoxazol-6-yl)piperidine-1-carboxamide]",> 1000 nM
10,"CN(C)CCn1c(=O)oc2cc(C3CCN(C(=O)NCCCCc4ccccc4)C(C)(C)C3)ccc21 (stereo not shown) [Example 32, 4-[3-[2-(Dimethylamino)ethyl]-2-oxo-1,3-benzoxazol-6-yl]-2,2-dimethyl-N-(4-phenylbutyl)piperidine-1-carboxamide]",< 200 nM
11,"Cn1c(=O)oc2cc(C3CCN(C(=O)NCCCCc4ccccc4)C4(COC4)C3)ccc21 (stereo not shown) [Example 34, 8-(3-Methyl-2-oxo-1,3-benzoxazol-6-yl)-N-(4-phenylbutyl)-2-oxa-5-azaspiro[3.5]nonane-5-carboxamide]",> 1000 nM
12,"Cn1c(=O)oc2cc(C3COCCN3C(=O)NCCCCc3ccccc3)ccc21 (stereo not shown) [Example 38, 3-(3-Methyl-2-oxo-1,3-benzoxazol-6-yl)-N-(4-phenylbutyl)morpholine-4-carboxamide]",> 1000 nM
13,"Cn1c(=O)oc2cc(C3CCCN3C(=O)NCCCCc3ccccc3)ccc21 (stereo not shown) [Example 44, 2-(3-Methyl-2-oxo-1,3-benzoxazol-6-yl)-N-(4-phenylbutyl)pyrrolidine-1-carboxamide]",> 1000 nM
14,"O=C(NCCCCc1ccccc1)N1CCN(c2ccc3[nH]c(=O)oc3c2)CC1 [Example 45, 4-(2-Oxo-3H-1,3-benzoxazol-6-yl)-N-(4-phenylbutyl)piperazine-1-carboxamide]",> 1000 nM
15,"C[C@H]1CN(c2ccc3c(c2)oc(=O)n3C)CCN1C(=O)NCCCCc1ccccc1 [Example 49, (2S)-2-Methyl-4-(3-methyl-2-oxo-1,3-benzoxazol-6-yl)-N-(4-phenylbutyl)piperazine-1-carboxamide]",200 to 1000 nM
16,"Cn1c(=O)oc2cc(N3CC4(COC4)N(C(=O)NCCCCc4ccccc4)CC3=O)ccc21 [Example 62, 8-(3-Methyl-2-oxo-1,3-benzoxazol-6-yl)-7-oxo-N-(4-phenylbutyl)-2-oxa-5,8-diazaspiro[3.5]nonane-5-carboxamide]",200 to 1000 nM
17,"O=C(NCCCCc1ccccc1)N1CC2(CCN(c3ccc4[nH]c(=O)oc4c3)CC2)C1 [Example 67, 7-(2-Oxo-3H-1,3-benzoxazol-6-yl)-N-(4-phenylbutyl)-2,7-diazaspiro[3.5]nonane-2-carboxamide]",> 1000 nM
18,"Cn1c(=O)oc2cc(N3CCC4(CC3)CN(C(=O)NCCCCc3ccccc3)C4)ccc21 [Example 68, 7-(3-methyl-2-oxo-1,3-benzoxazol-6-yl)-N-(4-phenylbutyl)-2,7-diazaspiro[3.5]nonane-2-carboxamide]",> 1000 nM
19,"O=C(NCCCCc1ccccc1)N1CCC2(CC1)CN(c1ccc3[nH]c(=O)oc3c1)C2 [Example 69, 2-(2-Oxo-3H-1,3-benzoxazol-6-yl)-N-(4-phenylbutyl)-2,7-diazaspiro[3.5]nonane-7-carboxamide]",> 1000 nM

# Continued, values first:
row,IC50,SMILES
1,< 200 nM,"C[C@H]1CC(c2ccc3c(c2)oc(=O)n3C)CCN1C(=O)NCCCCc1ccccc1 (mixture of isomers) [Example 20, (2S)-methyl-4-(3-methyl-2-oxo-1,3-benzoxazol-6-yl)-N-(4-phenylbutyl)piperidine-1-carboxamide]"
2,> 1000 nM,"Cn1c(=O)oc2cc(C3CCN(C(=O)NCCC4CC4)CC3)ccc21 [Example 4, N-(2-Cyclopropylethyl)-4-(3-methyl-2-oxo-1,3-benzoxazol-6-yl)piperidine-1-carboxamide]"
3,> 1000 nM,"CCCCCNC(=O)N1CCCC(c2ccc3c(c2)oc(=O)n3C)C1 (stereo not shown) [Example 13, 3-(3-Methy-2-oxo-1,3-benzoxazol-6-yl)-N-pentyl-piperidine-1-carboxamide]"
4,200 to 1000 nM,"Cn1c(=O)oc2cc(C3=CCCN(C(=O)NCCCCc4ccccc4)C3)ccc21 [Example 15, 5-(3-methyl-2-oxo-1,3-benzoxazol-6-yl)-N-(4-phenylbutyl)-3,6-dihydro-2H-pyridine-1-carboxamide]"
5,< 200 nM,"CC1(C)CC(c2ccc3[nH]c(=O)oc3c2)CCN1C(=O)NCCCCc1ccccc1 (stereo not shown) [Example 23, 2,2-Dimethyl-4-(2-oxo-3H-1,3-benzoxazol-6-yl)-N-(4-phenylbutyl)piperidine-1-carboxamide]"
6,> 1000 nM,"O=C(NCCCCc1ccccc1)N1CCCCC1c1ccc2[nH]c(=O)oc2c1 (stereo not shown) [Example 36, 2-(2-Oxo-3H-1,3-benzoxazol-6-yl)-N-(4-phenylbutyl)piperidine-1-carboxamide]"
7,> 1000 nM,"CCOCCNC(=O)N1CCN(c2ccc3c(c2)oc(=O)n3C)CC1(C)C [Example 55, N-(2-Ethoxyethyl)-2,2-dimethyl-4-(3-methyl-2-oxo-1,3-benzoxazol-6-yl)piperazine-1 carboxamide]"
8,> 1000 nM,"COCCCNC(=O)N1CCN(c2ccc3c(c2)oc(=O)n3C)CC1(C)C [Example 56, N-(3-Methoxypropyl)-2,2-dimethyl-4-(3-methyl-2-oxo-1,3-benzoxazol-6-yl)piperazine-1-carboxamide]"
9,> 1000 nM,"Cn1c(=O)oc2cc(N3CCN(C(=O)NCCCCc4ccccc4)C4(CC4)C3)ccc21 [Example 60, 7-(3-Methyl-2-oxo-1,3-benzoxazol-6-yl)-N-(4-phenylbutyl)-4,7-diazaspiro[2.5]octane-4-carboxamide]"
10,> 1000 nM,"Cn1c(=O)oc2cc(N3CC4CCC(C3)N4C(=O)NCCCCc3ccccc3)ccc21 [Example 61, 3-(3-Methyl-2-oxo-1,3-benzoxazol-6-yl)-N-(4-phenylbutyl)-3,8-diazabicyclo[3.2.1]octane-8-carboxamide]"
11,< 200 nM,"Cn1c(=O)oc2cc(N3C[C@H]4CN(C(=O)NCCCCc5ccccc5)C[C@H]4C3)ccc21 [Example 66, (3aS,6aR)- and (3aR,6aS)-2-(3-Methyl-2-oxo-1,3-benzoxazol-6-yl)-N-(4-phenylbutyl)-1,3,3a,4,6,6a-hexahydropyrrolo[3,4-c]pyrrole-5-carboxamide]"
12,> 1000 nM,"Cn1c(=O)oc2cc(N3CC4(CCN(C(=O)NCCCCc5ccccc5)CC4)C3)ccc21 [Example 70, 2-(3-Methyl-2-oxo-1,3-benzoxazol-6-yl)-N-(4-phenylbutyl)-2,7-diazaspiro[3.5]nonane-7-carboxamide]"
13,> 1000 nM,"Cn1c(=O)oc2cc(N3CCC4(CCN(C(=O)NCCCCc5ccccc5)CC4)CC3)ccc21 [Example 71, 9-(3-Methyl-2-oxo-1,3-benzoxazol-6-yl)-N-(4-phenylbutyl)-3,9-diazaspiro[5.5]undecane-3-carboxamide]"

# — patent US20220402901A1 (Bial - R&D Investments, S.A., priority 2019, published 2022)
